Literature values, collected in patent US12161674B2, “CRISPR-CAS9 modified CD34+ human hematopoietic stem and progenitor cells and uses thereof” (Vertex Pharmaceuticals Incorporated, priority 2018, dated 2024).

Test system: CD34^+ cells
Settings: plerixafor alone

c1cc(CN2CCCNCCNCCCNCC2)ccc1CN1CCCNCCNCCCNCC1 [plerixafor]
subjects with non-severe pain crisis (despite RBC transfusions in the preceding 2 months): 3 of 7 | median collection of CD34^+ cells after a single apheresis (subjects with severe SCD, range 5.1 to 20.0): 10.4×10^6 CD34^+ cells/kg
